Experimental findings from ChEMBL document CHEMBL1150777, “Chemically induced dimerization of human nonpancreatic secretory phospholipase A2 by bis-indole derivatives” (J Med Chem, 2008) are described below.

Molecules are shown by their SMILES.

This assay deals with T1, Phospholipase A2, membrane associated (Homo sapiens, UniProt P14555).
T1 sequence (P14555 whole entry): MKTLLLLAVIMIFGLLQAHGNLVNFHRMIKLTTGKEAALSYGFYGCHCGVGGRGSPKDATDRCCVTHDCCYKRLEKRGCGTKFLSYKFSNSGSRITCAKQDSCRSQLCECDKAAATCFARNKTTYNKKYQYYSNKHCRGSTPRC
The assay can be described thus: Inhibition of human nonpancreatic secretory phospholipase A2.
One may read the IC50 as the concentration at which inhibition is half-maximal. High values mean a need for much substance, low ones inhibition by little substance. `COc1ccc2c(c1)c(CC(N)=O)c(C)n2Cc1ccccc1` came in with an IC50 of 540 nM. That is a sub-micromolar value. The compound `COc1ccc2c(c1)c(CC(N)=O)c(C)n2Cc1ccccc1OCCCCCCCOc1ccccc1Cn1c(C)c(CC(N)=O)c2cc(OC)ccc21` returned a half-inhibitory concentration (IC50) of 52 nM. Compound `COc1ccc2c(c1)c(CC(N)=O)c(C)n2Cc1ccccc1OCCCCCOc1ccccc1Cn1c(C)c(CC(N)=O)c2cc(OC)ccc21` had an IC50 of 24 nM. With `COc1ccc2c(c1)c(CC(N)=O)c(C)n2Cc1ccc(OCCCCCOc2ccc(Cn3c(C)c(CC(N)=O)c4cc(OC)ccc43)cc2)cc1`, the IC50 was 86 nM. This IC50 lies about 3.6-fold higher than the previous one.

Turning to `COc1ccc2c(c1)c(CC(N)=O)c(C)n2Cc1ccccc1OCCCCOc1ccccc1Cn1c(C)c(CC(N)=O)c2cc(OC)ccc21`, inhibition was half-maximal at 60 nM (IC50). The compound `COc1ccc2c(c1)c(CC(N)=O)c(C)n2Cc1ccccc1OCCCCCCCCCOc1ccccc1Cn1c(C)c(CC(N)=O)c2cc(OC)ccc21` displayed an IC50 of 49 nM. Turning to `COc1ccc2c(c1)c(CC(N)=O)c(C)n2Cc1ccccc1OCCCCCCCCOc1ccccc1Cn1c(C)c(CC(N)=O)c2cc(OC)ccc21`, the IC50 stood at 58 nM. The figure for `COc1ccc2c(c1)c(CC(N)=O)c(C)n2Cc1cccc(OCCCCCOc2cccc(Cn3c(C)c(CC(N)=O)c4cc(OC)ccc43)c2)c1` is 76 nM.

`COc1ccc2c(c1)c(CC(N)=O)c(C)n2Cc1ccccc1OCCCOc1ccccc1Cn1c(C)c(CC(N)=O)c2cc(OC)ccc21`: half-maximal inhibition (IC50) was put at 48 nM. On to `COc1ccc2c(c1)c(CC(N)=O)c(C)n2Cc1ccccc1OCCCCCCOc1ccccc1Cn1c(C)c(CC(N)=O)c2cc(OC)ccc21`, for which 39 nM corresponded to half-maximal inhibition (IC50). The IC50 values of the last two compounds are within 1.5-fold of each other. In turn, `CCCCCOc1ccccc1Cn1c(C)c(CC(N)=O)c2cc(OC)ccc21` gave an IC50 of 120 nM. Compared with the last compound, the IC50 is about 3.1-fold higher.
